Several values for one entry are separate records, joined by “and”; a condition that tells them apart may be missing. Identical values can stand only once.

Holding throughout (conditions): Compound Concentration 10.0 uM, Hit No
Test [1] concerns the target G/T mismatch-specific thymine DNA glycosylase (Homo sapiens) (UniProt Q13569).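 Also: human TDG cleavage of quenched duplex DNA oligonucleotides coupled to APE1, strand release read as fluorescence at 594 nm, inhibition of TDG activity.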
Description: Inhibition of TDG by quantifying inhibition of TDG-mediated cleavage and dissociation of quenched duplex DNA oligonucleotides, measured as fluorescence at 594 nm. To generate a functional strand incision and increase turn-over this assay is coupled to APE1.
Test [2] deals with Endonuclease 8-like 1 (Homo sapiens) (UniProt Q96FI4).
Endonuclease 8-like 1 (Homo sapiens), sequence (Q96FI4 whole entry): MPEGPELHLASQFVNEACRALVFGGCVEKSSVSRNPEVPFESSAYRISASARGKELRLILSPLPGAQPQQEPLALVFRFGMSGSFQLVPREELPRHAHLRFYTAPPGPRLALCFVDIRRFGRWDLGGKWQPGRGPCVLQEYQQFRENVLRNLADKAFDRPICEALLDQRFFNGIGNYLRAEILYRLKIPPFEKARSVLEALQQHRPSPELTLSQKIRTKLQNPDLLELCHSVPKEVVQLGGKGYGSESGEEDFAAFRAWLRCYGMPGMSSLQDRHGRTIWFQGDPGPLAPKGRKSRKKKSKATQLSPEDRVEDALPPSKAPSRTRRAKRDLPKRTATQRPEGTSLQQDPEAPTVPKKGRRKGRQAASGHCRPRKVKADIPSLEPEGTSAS
Description: Inhibition of NEIL1 by quantifying inhibition of NEIL1-mediated cleavage and dissociation of quenched duplex DNA oligonucleotides, measured as fluorescence at 594 nm.
In test [3] the target is Uracil-DNA glycosylase (Homo sapiens) (UniProt P13051).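 Also: UNG excision on a quenched double-stranded DNA oligo probe, with APE1 added for strand incision and turnover, read as fluorescence at 594 nm as strands separate.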
Uracil-DNA glycosylase (Homo sapiens), sequence (P13051 whole entry): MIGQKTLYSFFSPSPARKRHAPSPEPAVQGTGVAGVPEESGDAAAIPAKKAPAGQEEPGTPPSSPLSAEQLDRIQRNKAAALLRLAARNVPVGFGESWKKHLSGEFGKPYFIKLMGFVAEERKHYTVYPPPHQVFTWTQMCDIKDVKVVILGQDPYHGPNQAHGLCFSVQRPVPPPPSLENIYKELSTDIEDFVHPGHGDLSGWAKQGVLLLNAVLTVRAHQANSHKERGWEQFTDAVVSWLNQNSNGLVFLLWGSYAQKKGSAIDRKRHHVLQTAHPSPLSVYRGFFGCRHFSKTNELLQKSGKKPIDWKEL
Description: Inhibition of UNG by quantifying inhibition of UNG-mediated cleavage and dissociation of quenched duplex DNA oligonucleotides, measured as fluorescence at 594 nm. To generate a functional strand incision and increase turn-over this assay is coupled to APE1.
In test [4] the target is N-glycosylase/DNA lyase (Homo sapiens) (UniProt O15527).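 Also: OGG1 cleavage of a quenched duplex DNA oligonucleotide, coupled to APE1 for strand incision, read as fluorescence at 594 nm.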
N-glycosylase/DNA lyase (Homo sapiens), sequence (O15527 whole entry): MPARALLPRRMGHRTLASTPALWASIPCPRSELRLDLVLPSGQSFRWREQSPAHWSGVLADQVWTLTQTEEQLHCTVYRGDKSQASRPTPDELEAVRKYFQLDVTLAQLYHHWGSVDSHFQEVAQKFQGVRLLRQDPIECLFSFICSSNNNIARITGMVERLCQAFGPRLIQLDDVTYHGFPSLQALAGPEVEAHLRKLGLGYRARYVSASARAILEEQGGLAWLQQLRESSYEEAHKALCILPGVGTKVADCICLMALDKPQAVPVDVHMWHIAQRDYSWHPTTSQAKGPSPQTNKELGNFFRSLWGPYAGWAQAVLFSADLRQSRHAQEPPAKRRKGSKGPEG
Description: Inhibition of OGG1 by quantifying inhibition of OGG1-mediated cleavage and dissociation of quenched duplex DNA oligonucleotides, measured as fluorescence at 594 nm. To generate a functional strand incision and increase turn-over this assay is coupled to APE1.
Test [5] deals with T1, Endonuclease III-like protein 1 (Homo sapiens) (UniProt P78549).
T1 sequence (whole entry): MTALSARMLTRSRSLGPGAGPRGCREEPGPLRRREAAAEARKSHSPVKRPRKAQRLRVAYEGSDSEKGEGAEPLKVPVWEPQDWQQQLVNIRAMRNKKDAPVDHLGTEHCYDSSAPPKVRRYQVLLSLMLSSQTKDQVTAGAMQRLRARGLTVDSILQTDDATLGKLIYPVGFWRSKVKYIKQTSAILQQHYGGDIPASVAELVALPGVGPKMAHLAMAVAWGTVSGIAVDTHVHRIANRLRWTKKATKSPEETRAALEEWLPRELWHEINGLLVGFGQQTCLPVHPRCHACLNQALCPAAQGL
Description: Inhibition of NTHL1 by quantifying inhibition of NTHL1-mediated cleavage and dissociation of quenched duplex DNA oligonucleotides, measured as fluorescence at 594 nm.

The target in test [6] is T2, Endonuclease 8-like 2 (Homo sapiens) (UniProt Q969S2).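 Also: fluorescence at 594 nm reports NEIL2 cutting and release of a quenched double-stranded DNA oligo substrate, reduced signal read as inhibition.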
T2 sequence (whole entry): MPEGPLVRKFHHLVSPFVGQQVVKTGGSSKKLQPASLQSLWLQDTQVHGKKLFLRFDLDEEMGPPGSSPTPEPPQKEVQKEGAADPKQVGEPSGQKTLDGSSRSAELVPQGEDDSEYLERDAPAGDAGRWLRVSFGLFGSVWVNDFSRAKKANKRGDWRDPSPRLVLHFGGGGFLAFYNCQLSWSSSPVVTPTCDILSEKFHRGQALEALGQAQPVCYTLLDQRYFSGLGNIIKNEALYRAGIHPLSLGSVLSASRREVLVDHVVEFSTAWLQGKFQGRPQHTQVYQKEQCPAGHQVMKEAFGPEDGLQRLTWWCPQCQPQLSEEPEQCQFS
Description: Inhibition of NEIL2 by quantifying inhibition of NEIL2-mediated cleavage and dissociation of quenched duplex DNA oligonucleotides, measured as fluorescence at 594 nm.

Test [7] deals with T3, Single-strand selective monofunctional uracil DNA glycosylase (Homo sapiens) (UniProt Q53HV7).
T3 sequence (whole entry): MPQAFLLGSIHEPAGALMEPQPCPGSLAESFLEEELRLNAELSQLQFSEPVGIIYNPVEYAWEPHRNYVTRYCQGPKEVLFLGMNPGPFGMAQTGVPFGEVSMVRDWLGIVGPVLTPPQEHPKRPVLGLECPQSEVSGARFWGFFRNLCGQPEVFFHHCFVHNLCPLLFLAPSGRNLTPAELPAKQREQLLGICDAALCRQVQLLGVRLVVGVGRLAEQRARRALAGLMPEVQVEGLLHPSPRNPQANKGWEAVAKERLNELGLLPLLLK
Description: Inhibition of SMUG1 by quantifying inhibition of SMUG1-mediated cleavage and dissociation of quenched duplex DNA oligonucleotides, measured as fluorescence at 594 nm. To generate a functional strand incision and increase turn-over this assay is coupled to APE1.

G/T mismatch-specific thymine DNA glycosylase (Homo sapiens), sequence (Q13569 whole entry): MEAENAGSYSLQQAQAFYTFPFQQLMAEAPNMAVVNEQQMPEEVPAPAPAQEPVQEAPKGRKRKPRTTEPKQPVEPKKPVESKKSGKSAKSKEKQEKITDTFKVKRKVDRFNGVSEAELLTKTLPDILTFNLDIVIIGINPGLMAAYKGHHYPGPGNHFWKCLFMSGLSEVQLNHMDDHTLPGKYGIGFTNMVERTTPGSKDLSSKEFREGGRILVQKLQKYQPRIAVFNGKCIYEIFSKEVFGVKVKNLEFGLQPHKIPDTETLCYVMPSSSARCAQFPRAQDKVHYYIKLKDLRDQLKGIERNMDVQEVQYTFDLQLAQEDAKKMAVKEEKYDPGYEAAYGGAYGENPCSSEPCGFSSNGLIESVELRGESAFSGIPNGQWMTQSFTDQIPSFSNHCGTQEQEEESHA

Regarding `CC1=C2C[C@H]3[C@@H](CC=C4C[C@@H](O)CC[C@@]43C)[C@@H]2CC[C@]12O[C@@H]1C[C@H](C)CN[C@H]1[C@H]2C`, the inhibition in test [1] was 5.99%; in test [2] it was -3.61%; in test [3], -9.72%; in test [4], -3.73%; in test [5] it was -6.14%; in test [6] it was 1.26%. Further, in test [7], the inhibition stood at 2.68%.
Turning to `CC(=O)c1ccc2c(c1)[C@@H]1C=CC[C@@H]1[C@H](c1cc3c(cc1Br)OCO3)N2`, the inhibition is 13.5% in test [1]; 1.72% in test [2]; -3.58% in test [3]; 2.12% in test [4]; 11.4% in test [5]; 9.25% in test [6]. In addition, the inhibition in test [7] is 5.25%.
For the molecule `CCNC1(C(N)=O)CCN(c2ncnc3c2nc(-c2ccccc2Cl)n3-c2ccc(Cl)cc2)CC1`, the inhibition is 11.7% in test [1]; 1.13% in test [2]; -6.19% in test [3]; -3.75% in test [4]; 17.3% in test [5]; 3.76% in test [6]. In addition, the inhibition in test [7] was 12.2%.
Regarding `CN1C[C@H](C(=O)N[C@]2(C)O[C@@]3(O)[C@@H]4CCCN4C(=O)[C@H](Cc4ccccc4)N3C2=O)C[C@@H]2c3cccc4[nH]cc(c34)C[C@H]21`, the inhibition in test [1] is 7.37%; in test [2] it was 9.88%; in test [3], -3.4%; in test [4] it was -8.52%; in test [5], 15.8%; in test [6], 7%. Also, the inhibition in test [7] worked out at 0.306%.
For `CN(c1ncccc1CNc1ccnc(-c2nc3c(F)c(Cl)ccc3[nH]2)n1)S(C)(=O)=O`, the inhibition in test [1] was 35.5%; in test [2], 1.59%; in test [3] it was -1.37%; in test [4], -6.69%; in test [5], 9.15%; in test [6], -8.38%. Further, the inhibition in test [7] was 9.82%.
As for `N#Cc1ccc(Cn2ccc(NC(=O)Cc3ccc(C4(C(F)(F)F)CC4)cc3)n2)nc1`, the inhibition in test [1] is -8.44%; in test [2], 4.9%; in test [3] it was -0.478%; in test [4] it was -2.87%; in test [5] it was 17.1%; in test [6] it was -3.66%. Moreover, the inhibition in test [7] was -0.24%.
As to `O=C(Nc1ccc(-n2nc(C(F)(F)F)cc2C(F)(F)F)cc1)c1ccncc1F`, the inhibition was 3.86% in test [2]; -0.503% in test [3]; -5.81% in test [4]; -4.39% in test [5]; -8.25% in test [6]; -4.65% in test [7].
For the molecule `COc1cc(Nc2nccc(-c3cnn4nc(OC)ccc34)n2)cc(C(F)(F)F)c1`, the inhibition in test [1] was 8.41%; in test [2] it was 11.1%; in test [3] it was -0.0969%; in test [4], 8.51%; in test [5], 0.785%; in test [6], -0.842%. In addition, the inhibition in test [7] was found to be 1.75%.
Take `Cc1c(P(=S)(c2ccccc2)c2ccccc2)n2ccccc2[n+]1C/C=C/c1ccccc1`: the inhibition in test [1] is 35.9%; in test [2], 11.1%; in test [3] it was -7.24%; in test [4] it was 1.08%; in test [5] it was 23.9%; in test [6], -6.97%. For the same molecule, the inhibition in test [7] was -6.48%.
`O=c1c2cccn2c2ccccc2n1CCCN1CCC(c2ccc(Cl)cc2)CC1`: the inhibition in test [1] is 2.78%; in test [2] it was 10.5%; in test [3], -8.09%; in test [4], -2.48%; in test [5], 6.32%; in test [6] it was 7.75%. Moreover, the inhibition in test [7] was found to be 5.73%.
For the molecule `COc1ccc(NS(=O)(=O)c2sc3ccc(Cl)cc3c2C)cc1N1CCNCC1`, the inhibition in test [1] was 18%; in test [2], 16%; in test [3] it was -3.02%; in test [4] it was -6.55%; in test [5], -3.94%; in test [6], 1.51%. For the same molecule, the inhibition in test [7] came to 12%.
On to `C[C@H](Cc1cc2c(c(C(N)=O)c1)N(CCCO)CC2)NCCOc1ccccc1OCC(F)(F)F`, for which the inhibition in test [1] was 2.34%; in test [2], -4.21%; in test [3], -9.87%; in test [4], -6.28%; in test [5], -1.01%; in test [6] it was -1.48%. Further, in test [7], the inhibition is 1.13%.
Regarding `Cc1onc(O)c1CC(N)C(=O)O` (configuration not stated), the inhibition is 5.29% in test [1]; -4.58% in test [2]; -3.91% in test [3]; -2.69% in test [4]; -3.56% in test [5]; -2.64% in test [6]. Also, the inhibition in test [7] was -3.23%.
For `OC1(c2ccc(Cl)cc2)CCN(Cc2c[nH]c3ccccc23)CC1`, the inhibition is 17.2% in test [1]; -5.1% in test [2]; -8.06% in test [3]; -9.04% in test [4]; 7.05% in test [5]; 5.51% in test [6]. Also, the inhibition in test [7] was -1.92%.
Take `S=C(NCCCc1c[nH]cn1)NCCCN(Cc1ccc(Cl)c(Cl)c1)c1ccc(Br)cn1`: the inhibition in test [1] is -1.74%; in test [2], -8.51% and -1.24%; in test [3], -7.82% and -8.52%; in test [4] it was -8.08% and 0.522%; in test [5], 7.05%; in test [6], -7.72% and 0.265%. Further, the inhibition in test [7] was 0.354%.
Regarding `COc1cc(OC)c(NC(=O)c2ccc(Cc3cc4c(cc3C)C(C)(C)CCC4(C)C)o2)c(OC)c1`, the inhibition in test [1] was 1.84%; in test [2], 7.51%; in test [3] it was -5.24%; in test [4] it was 2.66%; in test [5], 19.5%; in test [6], 14.7%. The inhibition in test [7] is -2.6%.
Turning to `CC(C)(C)c1cc(C(C)(C)C)c(NC(=O)c2c[nH]c3ccccc3c2=O)cc1O`, the inhibition in test [2] was 1.34%; in test [3], 1.6%; in test [4], -6.32%; in test [5] it was 14.6%; in test [6], 5.25%; in test [7], 6.2%.
As for `C[C@@H](O[C@H]1OCCN(Cc2n[nH]c(=O)[nH]2)[C@H]1c1ccc(F)cc1)c1cc(C(F)(F)F)cc(C(F)(F)F)c1`, the inhibition in test [1] was 0.716%; in test [2] it was 5.88%; in test [3] it was -3.75%; in test [4] it was -7.13%; in test [5], -1.01%; in test [6] it was 8.5%. Besides, the inhibition in test [7] is -5.17%.
On to `CN(C)S(=O)(=O)c1ccc(NC(=S)N2CCC(C(O)(c3ccccc3)c3ccccc3)CC2)cc1`, for which the inhibition in test [1] is -1.66%; in test [2], -0.797%; in test [3], -7.47%; in test [4], -3.65%; in test [5] it was 16.6%; in test [6] it was 0.265%. Besides, the inhibition in test [7] is 3.26%.
Regarding `N=C(N)NCCC[C@@H](NC(=O)C(c1ccccc1)c1ccccc1)C(=O)NCc1ccc(CNC(N)=O)cc1`, the inhibition in test [2] is 11.1%; in test [3] it was -1.81%; in test [4], -4.9%; in test [5], 11.3%; in test [6], -2.13%; in test [7] it was 0.0989%.

As a reminder, the inhibition is the change of the read-out against control, counted positive when it falls.

For the origin of these results see ChEMBL document CHEMBL5665443, “Enzyme Inhibitor Single Concentration assay results for EUbOPEN Chemogenomics Library” (2024).
